Here are results for 20 molecules from patent publication US6110400A, “Fulgimide compound and use thereof and composition containing said compound” (Tokuyama Corporation, priority 1996, dated 2000).

The nature of this series: Color development of photochromic cured product (color density, maximum absorption wavelength), xenon lamp 120 seconds. It is filed as physicochemical. On the procedure: To 100 parts by weight of a polymerizable monomer consisting of 45 parts by weight of 4G, 45 parts by weight of 3PG, 9 parts by weight of GMA and 1 part by weight of MSD were added 0.05 part by weight of fulgimide compound I-(1) and 1 part by weight of Perbutyl ND as a polymerization catalyst. The solution was stirred thoroughly until the content thereof was completely dissolved. The solution was poured into a mold constituted by a glass plate and a gasket composed of an ethylene-vinyl acetate copolymer. The mold was placed in an air oven and the solution therein was subjected to polymerization at 35 to 90° C. for 20 hours. After the completion of the polymerization, the obtained photochromic cured product was removed from the glass plate of the mold.
The obtained photochromic cured product having a thickness of 2 mm was exposed to the light emitted from a xenon lamp, model L-2480 (300 W) SHL-100, manufactured by Hamamatsu Photonics, through Aero Mass Filter (a product of Corning Co.), at 20±1° C. for 120 seconds at a beam intensity (on the polymer surface of 365 nm=2.4 mW/cm^2 and 254 nm=24 μW/cm^2, whereby the cured product was allowed to develop a color. A value [ε (120 seconds)-ε (0 seconds)] was calculated and taken as the "color density" of the developed color. In the above expression, ε (120 seconds) is an absorbance at maximum absorption wavelength after 120 seconds of irradiation, and ε (0 seconds) is an absorbance at maximum absorption wavelength under no irradiation. […]
The procedure of Example 15 was repeated except that the composition of the polymerizable monomer was changed as shown in Table 2. […]

The mark [1] stands for this setting: maximum absorption wavelength, monomers 3PG:45,4G:45,GMA:9,MSD:1.
[2] abbreviates: monomers 3PG:45,4G:45,GMA:9,MSD:1, 0.05 part fulgimide, 2 mm, 20±1° C., 120 seconds irradiation.
Where [3] appears, read: Ex. 29, monomers 4G:65,3G:15,GMA:9,MS:8,HEMA:2,MSD:1.
Setting [4] is: Ex. 30, monomers BR-MA:20,BzMA:25,3PG:37,GMA:9,MS:8,MSD:1.
Setting [5] is: Ex. 31, monomers BPE-100N:45,3G:37,GMA:9,MS:8,MSD:1.

`CC1=C2C(=O)N(c3ccccc3C#N)C(=O)C2C2(c3sc(-c4ccccc4)cc31)C1CC3CC(C1)CC2C3` (stereo not drawn) [Fulgimide compound B, reference compound] displayed a max under setting [1] of 570 nm. The Color density under setting [2] worked out at 0.64 Abs.

Consider `N#Cc1cccc(N2C(=O)C3=C(C4CC4)c4ccsc4C4(C5CC6CC(C5)CC4C6)C3C2=O)c1` (stereo not drawn) [I-(3), N-(3'-cyanophenyl)-4-cyclopropyl-6,7-dihydrospirobenzothiophenecarboxyimide-7,2'-tricyclo[3.3.1.13,7]decane], for which the max under setting [1] came to 560 nm. The molecule further had a Color density under setting [2] of 1.42 Abs.

`COC(=O)c1cccc(N2C(=O)C3=C(C)c4ccsc4C4(C5CC6CC(C5)CC4C6)C3C2=O)c1` (stereo not drawn) [I-(10)] returned a max under setting [1] of 550 nm. The Color density under setting [2] was found to be 1.14 Abs.

Molecule `CC1=C2C(=O)N(c3cccc(S(=O)O)c3)C(=O)C2C2(c3sccc31)C1CC3CC(C1)CC2C3` (stereo not drawn) [I-(12)] came in with a max under setting [1] of 567 nm. Moreover, the Color density under setting [2] stood at 1.22 Abs.

Consider `CC1=C2C(=O)N(c3ccc(C#N)cc3)C(=O)C2C2(c3sc(-c4ccccc4)cc31)C1CC3CC(C1)CC2C3` (stereo not drawn) [Fulgimide compound C, reference compound], for which, under setting [1], the max is reported as 570 nm. The molecule also yielded a Color density under setting [2] of 0.63 Abs.

For the molecule `COc1ccc(-c2cc3c(s2)C2(C4CC5CC(C4)CC2C5)C2C(=O)N(c4cccc(C#N)c4)C(=O)C2=C3C)cc1` (stereo not drawn) [I-(1), N-(3'-cyanophenyl)-6,7-dihydro-4-methyl-2-(4'-methoxyphenyl)spirobenzothiophenecarboxyimide-7,2'-tricyclo[3.3.1.13,7]decane], the Color density is, setting by setting: under setting [3], 1.28 Abs; under setting [4], 1.29 Abs; under setting [5], 1.11 Abs; (Ex. 32, monomer 4G:100) 1.41 Abs; under setting [2], 1.33 Abs. The max is, setting by setting: under setting [3], 584 nm; under setting [4], 590 nm; under setting [5], 590 nm; (Ex. 32, monomer 4G:100) 584 nm; under setting [1], 582 nm.

As to `CC1=C2C(=O)N(c3cccc(F)c3)C(=O)C2C2(c3sc(C)cc31)C1CC3CC(C1)CC2C3` (stereo not drawn) [I-(9)], the max under setting [1] is 574 nm. The Color density under setting [2] is 1.43 Abs.

Consider `CC1=C2C(=O)N(c3cccc(C(=O)c4ccccc4)c3)C(=O)C2C2(c3sccc31)C1CC3CC(C1)CC2C3` (stereo not drawn) [I-(11)], for which the max under setting [1] turned out to be 563 nm. For the same molecule, the Color density under setting [2] is given as 1.18 Abs.

`CC1=C2C(=O)N(c3cccc(C#N)c3)C(=O)C2C2(c3sc(-c4ccccc4)cc31)C1CC3CC(C1)CC2C3` (stereo not drawn) [I-(2), N-(3'-cyanophenyl)-6,7-dihydro-4-methyl-2-phenylspirobenzothiophenecarboxyimide-7,2'-tricyclo[3.3.1.13,7]decane] had a max under setting [1] of 570 nm. In addition, the Color density under setting [2] is on record as 1.25 Abs.

In the case of `CC(=O)c1cccc(N2C(=O)C3=C(C)c4cc(C)oc4C4(C5CCC4CC5)C3C2=O)c1` (stereo not drawn) [I-(6)], under setting [1], the max came out at 525 nm. Under setting [2], the Color density came out at 1.06 Abs.

In turn, `CC1=C2C(=O)N(c3cccc(C(=O)Oc4ccccc4)c3)C(=O)C2C2(c3sccc31)C1CC3CC(C1)CC2C3` (stereo not drawn) [I-(14)] showed a max under setting [1] of 562 nm. The same molecule registered a Color density under setting [2] of 1.12 Abs.

The molecule `CC1=C2C(=O)N(c3cc(C#N)cc(C#N)c3)C(=O)C2C2(c3sc(-c4ccccc4)cc31)C1CC3CC(C1)CC2C3` (stereo not drawn) [I-(8), N-(3',5'-dicyanophenyl)-6,7-dihydro-4-methyl-2-phenylspirobenzothiophenecarboxyimide-7,2'-tricyclo[3.3.1.13,7]decane] returned a max under setting [1] of 582 nm. The molecule further showed a Color density under setting [2] of 1.58 Abs.

`CC1=C2C(=O)N(c3cccc(S(=O)(=O)c4ccccc4)c3)C(=O)C2C2(c3sccc31)C1CC3CC(C1)CC2C3` (stereo not drawn) [I-(13)]: under setting [1], the max is on record as 564 nm. In addition, under setting [2], the Color density was 1.25 Abs.

Under setting [1], `CC1=C2C(=O)N(C#N)C(=O)C2C2(c3sc(-c4ccccc4)cc31)C1CC3CC(C1)CC2C3` (stereo not drawn) [Fulgimide compound E, reference compound] had a max of 620 nm. This molecule came in with a Color density under setting [2] of 0.74 Abs.

`CC1=C2C(=O)N(c3cccc(S(C)(=O)=O)c3)C(=O)C2C2(c3occc31)C1CCCC2CCC1` (stereo not drawn) [I-(7)]: the max under setting [1] was determined as 530 nm. The molecule further showed a Color density under setting [2] of 1.20 Abs.

Molecule `CC1=C2C(=O)N(c3cccc(C(F)(F)F)c3)C(=O)C2C2(c3sc(-c4ccccc4)cc31)C1CC3CC(C1)CC2C3` (stereo not drawn) [I-(4), 6,7-dihydro-4-methyl-2-phenyl-N-(3'-trifluoromethylphenyl)spirobenzothiophenecarboxyimide-7,2'-tricyclo[3.3.1.13,7]decane] displayed a max under setting [1] of 566 nm. This molecule came in with a Color density under setting [2] of 1.22 Abs.

For `CC1=C2C(=O)N(c3cccc([N+](=O)[O-])c3)C(=O)C2C2(c3sccc31)C1CC3CC(C1)CC2C3` (stereo not drawn) [I-(5), 6,7-dihydro-4-methyl-N-(3'-nitrophenyl)spirobenzothiophenecarboxyimide-7,2'-tricyclo[3.3.1.13,7]decane], the max under setting [1] was found to be 572 nm. Under setting [2], this molecule yielded a Color density of 1.36 Abs.

The molecule `CC1=C2C(=O)N(c3ccccc3)C(=O)C2C2(c3sc(-c4ccccc4)cc31)C1CC3CC(C1)CC2C3` (stereo not drawn) [Fulgimide compound A] gave a max under setting [1] of 555 nm. This molecule returned a Color density under setting [2] of 0.51 Abs.

In the case of `CC1=C2C(=O)N(CC#N)C(=O)C2C2(c3sc(-c4ccccc4)cc31)C1CC3CC(C1)CC2C3` (stereo not drawn) [Fulgimide compound D, reference compound], under setting [1], the max is 568 nm. The molecule further yielded a Color density under setting [2] of 0.72 Abs.

Under setting [1], `COc1ccc(-c2cc3c(s2)C2(C4CC5CC(C4)CC2C5)C2C(=O)N(CC#N)C(=O)C2=C3C)cc1` (stereo not drawn) [Fulgimide compound F, reference compound] came in with a max of 578 nm. The Color density under setting [2] is on record as 0.78 Abs.
